The text below walks through data of patent US20110183978A1, “Phenylpyri(mi)dinylazoles” (Bayer CropScience AG, priority 2009, published 2011).

The nature of the first data set: physchem. The following applies: LogPA.
For the molecule `COCCOCC(=O)Nc1cc(-c2cn(C)nc2-c2ccc(F)cc2)ccn1` [Compound 345], the chromatographic logP (commonly a lipophilicity value derived from retention on a column) stood at 1.96. Molecule `Cn1cc(-c2ccnc(NC(=O)CCc3ccccc3)c2)c(-c2ccc(F)cc2)n1` [Compound 343] returned a chromatographic logP of 2.54. Still for that read-out and setting: under `CC(=O)Nc1nccc(-c2cn(CC(C)C)nc2-c2ccc(F)cc2)n1` [Compound 357] stands 2.44; under `CC(C)Cn1cc(-c2ccnc(NCc3ccccc3)n2)c(-c2ccc(F)cc2)n1` [Compound 182], 3.15; under `CC(C)Cn1cc(-c2ccnc(N(C(=O)C(C)C)C(C)C)n2)c(-c2ccc(F)cc2)n1` [Compound 185], 4.25. Same read-out and setting: under `CCn1cc(-c2ccnc(NC(=O)CCc3ccc(Cl)cc3)c2)c(-c2ccc(F)cc2)n1` [Compound 336] stands 3.32.

Turning to `CCC(C)n1cc(-c2ccnc(NC(C)C)n2)c(-c2ccc(F)cc2)n1` (stereo not shown) [Compound 360], the chromatographic logP worked out at 2.41.

Regarding `CC(C)Cn1cc(-c2ccnc(NC(C)C3CC3)n2)c(-c2ccc(F)cc2)n1` (stereo not shown) [Compound 372], the chromatographic logP turned out to be 2.73. For `COCCn1cc(-c2ccnc(NC(C)C)n2)c(-c2ccc(F)cc2)n1` [Compound 358], the chromatographic logP is 1.79.

The same data set, now with this note: LogPA (logP of the stated pure compound or, in a mixture, of the main isomer, 1-substituted 3-aryl-1H-pyrazole).
Turning to `CC(C)(C)C(=O)Nc1cc(-c2cnn(C3CCCCO3)c2-c2cccc(C(F)(F)F)c2)ccn1` (stereo not shown) [Compound 82], the chromatographic logP came to 3.84.

Consider `c1ccc(COc2ccccc2-c2c(-c3ccncc3)cnn2C2CCCCO2)cc1` (stereo not shown) [Compound 98, 4-{5-[2-(benzyloxy)phenyl]-1-(tetrahydro-2H-pyran-2-yl)-1H-pyrazol-4-yl}pyridine], for which the chromatographic logP was found to be 1.64. The same measure, in the same setting: with `Fc1ccc(-c2nn(Cc3ccc(F)c(Oc4ccccc4)c3)cc2-c2ccncc2)cc1` [Compound 139] the figure was 2.4. Still for that read-out and setting: under `NC(=O)c1cc(-c2cn(C3CCCCO3)nc2-c2cccc(Cl)c2)ccn1` (stereo not shown) [Compound 95] stands 2.93; under `Fc1ccc(-c2c(-c3ccncc3)cnn2C2CCCCO2)c(F)c1` (stereo not shown) [Compound 56, 4-[5-(2,4-difluorophenyl)-1-(tetrahydro-2H-pyran-2-yl)-1H-pyrazol-4-yl]pyridine], 1.35; under `Fc1ccc(-c2nn(Cc3cccc(-c4ccccc4)c3)cc2-c2ccncc2)cc1` [Compound 125], 2.38. Same read-out and setting: with `c1cnc2c(-c3c(-c4ccncc4)cnn3C3CCCCO3)cccc2c1` (stereo not shown) [Compound 99, 8-[4-(pyridin-4-yl)-1-(tetrahydro-2H-pyran-2-yl)-1H-pyrazol-5-yl]quinoline] the figure was 1.09.

Turning to `FC(F)(F)c1cccc(-c2nn(C3CCCCO3)cc2-c2ccncc2)c1` (stereo not shown) [Compound 42], the chromatographic logP was determined as 1.84. On the same count and under the same terms, under `Clc1cccc(-c2c(-c3ccncc3)cnn2C2CCCCO2)c1Cl` (stereo not shown) [Compound 76, 4-[5-(2,3-dichlorophenyl)-1-(tetrahydro-2H-pyran-2-yl)-1H-pyrazol-4-yl]pyridine] stands 1.66; under `N#Cc1cc(-c2c(-c3ccncc3)cnn2C2CCCCO2)ccc1F` (stereo not shown) [Compound 61, 2-fluoro-5-[4-(pyridin-4-yl)-1-(tetrahydro-2H-pyran-2-yl)-1H-pyrazol-5-yl]benzonitrile], 1.45.

The same data set, now with this note: pH 2.3, LogP (pH 2.3).
In turn, `Fc1ccc(-c2nn(CC3OCCO3)cc2Br)cc1` [[VI-17], 4-Bromo-1-(1,3-dioxolan-2-ylmethyl)-3-(4-fluorophenyl)-1H-pyrazole] displayed a chromatographic logP of 3.01. Molecule `CC(C)On1cc(Br)c(-c2ccc(F)cc2)n1` [[VI-25], 4-Bromo-3-(4-fluorophenyl)-1-isopropoxy-1H-pyrazole] registered a chromatographic logP of 4.11. As to `Clc1ccc(-c2c(-c3ccncc3)cnn2C2CCCCO2)cc1` (stereo not shown) [[X-18], 4-[5-(4-chlorophenyl)-1-(tetrahydro-2H-pyran-2-yl)-1H-pyrazol-4-yl]pyridine], the chromatographic logP was 1.52. `Cn1nc(-c2ccc(F)cc2O)c(Br)c1OC(F)F` [[VI-c-1], 2-[4-Bromo-5-(difluoromethoxy)-1-methyl-1H-pyrazol-3-yl]-5-fluorophenol] registered a chromatographic logP of 3.48. On the same count and under the same terms, under `CC(C)n1cc(B2OC(C)(C)C(C)(C)O2)c(-c2ccc(F)cc2)n1` [[V-1], 3-(4-Fluorophenyl)-1-isopropyl-4-(4,4,5,5-tetramethyl-1,3,2-dioxaborolan-2-yl)-1H-pyrazole] stands 4.46. Still for that read-out and setting: under `Fc1ccc(-c2c(-c3ccncc3)cnn2C2CCCCO2)c2ccccc12` (stereo not shown) [[X-3], 4-[5-(4-fluoro-1-naphthyl)-1-(tetrahydro-2H-pyran-2-yl)-1H-pyrazol-4-yl]pyridine] stands 1.72. Still for that read-out and setting: under `COc1cc(F)ccc1-c1c(-c2ccncc2)cnn1C1CCCCO1` (stereo not shown) [[X-14], 4-[5-(4-fluoro-2-methoxyphenyl)-1-(tetrahydro-2H-pyran-2-yl)-1H-pyrazol-4-yl]pyridine] stands 1.26; under `CC(C)Cn1cc(Br)c(-c2ccc(F)cc2)n1` [[VI-4], 4-Bromo-3-(4-fluorophenyl)-1-isobutyl-1H-pyrazole], 4.34; under `CC(C)n1nc(-c2ccc(F)cc2)c(Br)c1C(F)(F)F` [[VI-24], 4-Bromo-3-(4-fluorophenyl)-1-isopropyl-5-(trifluoromethyl)-1H-pyrazole], 5.51. Molecule `N#Cc1cccc(Cn2cc(Br)c(-c3ccc(F)cc3)n2)c1` [[VI-12], 3-{[4-Bromo-3-(4-fluorophenyl)-1H-pyrazol-1-yl]methyl}benzonitrile] returned a chromatographic logP of 3.93.

Still in this data set, the particulars now being: pH 2.7, logP (pH 2.7).
On to `CCn1ncc(Br)c1-c1ccc(F)cc1` [[VI-3], 4-Bromo-1-ethyl-5-(4-fluorophenyl)-1H-pyrazole], for which the chromatographic logP was determined as 3.15. The same measure, in the same setting: under `Fc1ccc(-c2nn(CC3OCCO3)cc2Br)cc1` [[VI-17], 4-Bromo-1-(1,3-dioxolan-2-ylmethyl)-3-(4-fluorophenyl)-1H-pyrazole] stands 3.01; under `CC(C)On1cc(Br)c(-c2ccc(F)cc2)n1` [[VI-25], 4-Bromo-3-(4-fluorophenyl)-1-isopropoxy-1H-pyrazole], 4.11; under `Cn1nc(-c2ccc(F)cc2O)c(Br)c1OC(F)F` [[VI-c-1], 2-[4-Bromo-5-(difluoromethoxy)-1-methyl-1H-pyrazol-3-yl]-5-fluorophenol], 3.48. In the case of `CC(C)n1cc(B2OC(C)(C)C(C)(C)O2)c(-c2ccc(F)cc2)n1` [[V-1], 3-(4-Fluorophenyl)-1-isopropyl-4-(4,4,5,5-tetramethyl-1,3,2-dioxaborolan-2-yl)-1H-pyrazole], the chromatographic logP was found to be 4.51. Still for that read-out and setting: with `CC(C)n1cc(-c2ccncc2)c(-c2c(F)cccc2F)n1` [[I-d-1], 4-[3-(2,6-Difluorophenyl)-1-isopropyl-1H-pyrazol-4-yl]pyridine] the figure was 1.4; with `Fc1cccc(F)c1-c1n[nH]cc1-c1ccncc1` [[XXVII-1], 4-[3-(2,6-Difluorophenyl)-1H-pyrazol-4-yl]pyridine], 1.54. On the same count and under the same terms, under `CC(C)Cn1cc(-c2ccnc(NC(=O)C(C)C)c2)c(-c2ccc(F)cc2)n1` [[I-c-2], N-{4-[3-(4-fluorophenyl)-1-isobutyl-1H-pyrazol-4-yl]pyridin-2-yl}-2-methylpropanamide] stands 2.89; under `CN(C)C=C(C(=O)c1c(F)cccc1F)c1ccncc1` [[XXVI-1], 1-(2,6-Difluorophenyl)-3-(dimethylamino)-2-(pyridin-4-yl)prop-2-en-1-one], 0.6. `CC(C)Cn1cc(Br)c(-c2ccc(F)cc2)n1` [[VI-4], 4-Bromo-3-(4-fluorophenyl)-1-isobutyl-1H-pyrazole] returned a chromatographic logP of 4.34. On the same count and under the same terms, under `CC(C)n1nc(-c2ccc(F)cc2)c(Br)c1C(F)(F)F` [[VI-24], 4-Bromo-3-(4-fluorophenyl)-1-isopropyl-5-(trifluoromethyl)-1H-pyrazole] stands 5.51. In the case of `N#Cc1cccc(Cn2cc(Br)c(-c3ccc(F)cc3)n2)c1` [[VI-12], 3-{[4-Bromo-3-(4-fluorophenyl)-1H-pyrazol-1-yl]methyl}benzonitrile], the chromatographic logP turned out to be 3.93.

`COCCn1ncc(Br)c1-c1ccc(F)cc1` [[VI-7], 4-Bromo-5-(4-fluorophenyl)-1-(2-methoxyethyl)-1H-pyrazole] came in with a chromatographic logP of 2.9. On the same count and under the same terms, with `Cc1[nH]nc(-c2ccc(F)cc2)c1-c1ccncc1` [[IX-b-1], 4-[3-(4-Fluorophenyl)-5-methyl-1H-pyrazol-4-yl]pyridine] the figure was 0.6.
